Results reported in patent US20160367497A1, “METHODS AND COMPOSITIONS FOR TREATING NEUROPATHIES” (Washington University, priority 2007, published 2016).

What was measured:
AMPK [1] = experiment: AMPK phosphorylation in Neuro2a cells (phospho-specific western blot); format: cell-based; conditions: for effect on resveratrol-mediated activation of AMPK (AMPK and ACC phosphorylation): resveratrol 10 μM, 2 h, sirtinol 10 μM, splitomycin 10 μM, nicotinamide 10 mM, STO 609 2.5 μM
Procedure: (§1) FIG. 10A-D illustrates resveratrol activation of AMP kinase in Neuro2a cells. Neuro2a cells were switched to serum-starvation medium (medium containing 0.2% FCS) and treated with DMSO (vehicle control), resveratrol (10 μM) or 5-aminoimidazole-4-carboxamide-1-β-D-ribofuranoside (AICAR) (1 mM). […] Very low levels of phosphorylated AMPK and ACC were detected in DMSO treated control cells at all time points tested. (C) Densitometric analysis of changes in phosphorylated AMPK and (D) phosphorylated ACC under different conditions is shown.
Cell culture and Reagents. Neuro2 cells obtained from ATCC were grown in MEM with 1.5 g/L sodium bicarbonate, 0.1 mM nonessential amino acids, 0.1 mM sodium pyruvate, 2 mM L-glutamine with 10% FCS. For differentiation, cells were switched to serum-starvation medium (containing 0.2% FCS). For neurite outgrowth measurements, experiments were done in quadruplicate and 100 neurites per well were randomly measured using the Metamorph software. Dorsal root ganglia sensory and cortical neurons were established from E13.5 mouse embryos, maintained in neurobasal medium supplemented with B27 (and NGF for DRG neurons) and infected with lentiviruses as described (Araki et al., 2004, Science 305:1010-1013; Hawley et al., 2005, Cell Metab 2:21-23). Resveratrol was a gift from Sirtris Pharmaceuticals (Cambridge Mass.) and AICAR was obtained from Toronto Research (North York, Canada). Splitomycin and Compound C were purchased from Biomol (Plymouth Meeting, Pa.) and Calbiochem (San Diego, Calif.). Sirtinol and nicotinamide were purchased from Sigma (Saint Louis, Mo.)
Plasmids and viruses. The dominant negative (dnAMPK) and constitutively active (caAMPK) plasmids were gifts from Russell Jones (University of Pennsylvania, Philadelphia Pa.), and pCXN-Cre was a gift of Inder Verma (Salk Institute, San Diego, Calif.). All constructs were subcloned into the lentiviral shuttle vector FCIV and verified by nucleotide sequence analysis. Viruses were prepared as previously described (Araki et al., 2004, Science 305:1010-1013). Protein and mRNA analysis. Immunoprecipitations and western blot analysis were performed by standard methods using antibodies directed against total AMPK, phosphorylated AMPK, total ACC or phosphorylated ACC that were obtained from Cell Signaling Technology (Beverley, Mass.). The phospho-AMPK antibody detects endogenous AMPK α1 and α2 when phosphorylated at threonine 172. The LKB1 antibody was purchased from Upstate (Lake Placid, N.Y.). Quantitative RT-PCR analysis was performed using Sybr-Green methodology on a model 7700 instrument (Applied Biosystems) as previously described (Araki et al., 2004, Science 305:1010-1013). Primer sequences were those used in previous studies (Motoshima, et al., 2006, J Physiol 574:63-71).
(§2) To explore the role of polyphenols, in particular, of resveratrol, we tested whether resveratrol altered the activity of AMPK in neuronal cells. Neuro2a neuroblastoma cells were treated with resveratrol (10 μM) and AMPK activation was examined using phospho-AMPK specific antibodies. […] To confirm that AMPK activation by resveratrol results in typical AMPK-mediated downstream responses, we monitored phosphorylation of ACC (acetyl Co-A carboxylase), a primary target of activated AMPK. […] To examine a potential mechanism of resveratrol-mediated AMPK activation, we measured cellular ATP levels as a decreased ATP:AMP ratio increases the phosphorylation of AMPK. ATP levels were monitored using a luciferase-based assay in neuro2A cells treated with resveratrol or Oligomycin, an inhibitor of mitochondrial oxidative phosphorylation and therefore ATP production. While the ATP concentration dropped from 5.874 μM in DMSO-treated cells (control) to 0.976 μM in Oligomycin treated cells within 2 hr, the ATP concentration in resveratrol-treated Neuro2a cells was not altered from control either at 2 hr (6.33 μM) or 24 hr (6.42 μM).

[2] = tested on: Tfam, PGC-1α and MFN2 mRNA; experiment: mitochondrial biogenesis markers, quantitative RT-PCR in Neuro2a cells; format: cell-based; conditions: 10 μM, 3 d
Procedure: Three days later cells were shifted to serum-starvation medium containing DMSO (control) or resveratrol (10 μM). In addition, uninfected Neuro2a cells in serum-starvation medium were treated with resveratrol alone, the AMPK inhibitor Compound C (CC, Biomol International L.P. (Plymouth Meeting, Pa.)) (10 μM) alone or with resveratrol and CC together. […] Values were normalized to the 18S transcript. Data shown is representative of two independent experiments.
Protein and mRNA analysis. […] Quantitative RT-PCR analysis was performed using Sybr-Green methodology on a model 7700 instrument (Applied Biosystems) as previously described (Araki et al., 2004, Science 305:1010-1013).
We treated Neuro2a cells for 3d with either DMSO (control) or resveratrol (10 μM) in the presence or absence of the AMPK inhibitor Compound C (10 μM). We assessed mitochondrial biogenesis by monitoring mRNA levels of mitofusin 2 (MFN2), a mitochondrial protein and marker of mitochondrial mass and two key regulators of mitochondrial biogenesis, peroxisome proliferator activated receptor γ coactivator 1α (PGC1α) and mitochondrial transcription factor A (Tfam) (Kelly, et al., 2004, Genes Dev 18:357-368).

AMPK [3] = experiment: AMPK phosphorylation in brain after intraperitoneal injection; format: in vivo, mice; conditions: single intraperitoneal injection 20 mg/kg; within 2 h
Procedure: (§3) FIG. 15A-E illustrates that resveratrol treatment causes AMPK phosphorylation in the brain. Two-month-old male mice were injected intraperitoneally with resveratrol (20 mg/kg body weight) or DMSO (vehicle) (n=3, for each treatment). Two hr after treatment, the animals were sacrificed and brain lysates were prepared. […] Total AMPK and ACC levels are shown as loading controls in B and D. (E) Densitometry was used to quantify the increased level of AMPK and ACC phosphorylation in the brain of resveratrol treated animals (* p<0.005).
(§4) To extend our in vitro results, we tested whether treating mice with resveratrol activates AMPK in the brain. We injected intraperitoneally 2-month-old male mice with either resveratrol (20 mg/kg body weight) or DMSO (vehicle) (n=3 for each group).

[4] = tested on: acetyl Co-A carboxylase (ACC); experiment: ACC phosphorylation in Neuro2a cells (phospho-specific western blot); format: cell-based; conditions: resveratrol 10 μM or AICAR 1 mM; all time points to 72 hr
Procedure: as §1
Plasmids and viruses. […] Quantitative RT-PCR analysis was performed using Sybr-Green methodology on a model 7700 instrument (Applied Biosystems) as previously described (Araki et al., 2004, Science 305:1010-1013). […]
To explore the role of polyphenols, in particular, of resveratrol, we tested whether resveratrol altered the activity of AMPK in neuronal cells. […] To confirm that AMPK activation by resveratrol results in typical AMPK-mediated downstream responses, we monitored phosphorylation of ACC (acetyl Co-A carboxylase), a primary target of activated AMPK. […] To examine a potential mechanism of resveratrol-mediated AMPK activation, we measured cellular ATP levels as a decreased ATP:AMP ratio increases the phosphorylation of AMPK. […]

neuro2A cells [5] = experiment: Neuro2a cell proliferation, Ki67 immunocytochemistry; format: cell-based; conditions: 0.2% fetal calf serum; AICAR 1 mM or resveratrol 10 μM; 24 h after plating; DMSO controls 50%
Procedure: Neuro2a cells are a widely used as in vitro model of neuronal differentiation. These cells cease to proliferate and begin to differentiate, as evidenced by neurite outgrowth, in response to serum starvation, retinoic acid, or growth factors like neurotrophins and GDNF family ligands. […] Neuro2a cells grown under serum starvation conditions (0.2% fetal calf serum) were treated with AICAR (1 mM) or resveratrol (10 μM).

ACC = ACC phosphorylation in brain after intraperitoneal injection; format: in vivo, mice; conditions: single intraperitoneal injection 20 mg/kg; within 2 h
Procedure: as §3, §4

neuro2A cells [6] = experiment: cellular ATP levels, luciferase-based assay in neuro2A cells; format: cell-based
Procedure: as §2

NC(=O)c1cccnc1 [Nam, nicotinamide]
effect on resveratrol-mediated activation of AMPK (AMPK and ACC phosphorylation) (AMPK [1]): None of the SIRT1 inhibitors attenuated

O=C(O)c1ccc2c3c1cccc3c(=O)n1c3ccccc3nc21 [STO 609]
effect on resveratrol-mediated activation of AMPK (AMPK and ACC phosphorylation) (AMPK [1]): had no effect

CC(NC(=O)c1ccccc1/N=C/c1c(O)ccc2ccccc12)c1ccccc1 (centres unmarked) [Sirtinol]
effect on resveratrol-mediated activation of AMPK (AMPK and ACC phosphorylation) (AMPK [1]): None of the SIRT1 inhibitors attenuated

Oc1ccc(C=Cc2cc(O)cc(O)c2)cc1 [resveratrol]
increase in MFN2 mRNA [2]: 2 fold
increase in PGC-1α mRNA [2]: 2 fold
increase in Tfam mRNA [2]: ~18 fold
increased AMPK phosphorylation in the brain (AMPK [3]): 2.5 fold
ACC phosphorylation [4]: robust phosphorylation of ACC
proliferating cells (Ki67) (neuro2A cells [5]): 11%
increased ACC phosphorylation in the brain (ACC): 2.1 fold
AMPK phosphorylation (AMPK [1]; resveratrol 10 μM or AICAR 1 mM, 2 h up to 72 h): robust increase in AMPK Thr172 phosphorylation
ATP concentration (neuro2A cells [6]; 2 hr): 6.33 µM
ATP concentration (neuro2A cells [6]; 24 hr): 6.42 µM

O=C1CCc2c(ccc3ccccc23)O1 [splitomycin]
effect on resveratrol-mediated activation of AMPK (AMPK and ACC phosphorylation) (AMPK [1]): None of the SIRT1 inhibitors attenuated
